This is an account of results in US20130252935A1, “Monobactams” (PFIZER INC., priority 2010, published 2013).

Converted amounts (≈) assume the structure as drawn.

Assay type in all cases: cell-based
Test [1] relates to Klebsiella pneumoniae 1000-02. The experiment in a line: minimum inhibitory concentration (MIC) testing according to CLSI guidelines, Klebsiella pneumoniae. The following applies: ciprofloxacin-resistant, ESBL-expressing clinical isolate 1000-02, overnight incubation, lower of duplicate values; for MIC: Klebsiella pneumoniae, read-out: AB-MBT: Klebsiella pneumoniae 1000-02: MIC (MstRcnt). How it is done:
(§1) In order to assess the compounds biological activity, the in vitro anti-bacterial activity of selected compounds described in the Examples 1-69 was evaluated by minimum inhibitory concentration (MIC) testing according to Clinical and Laboratory Standards Institute (CLSI, formerly NCCLS) guidelines. See: Clinical and Laboratory Standards Institute. Methods for Dilution Antimicrobial Susceptibility Tests for Bacteria that Grow Aerobically; Approved Standard-Eighth Edition. CLSI document M7-A8 [ISBN 1-56238-689-1]. Clinical and Laboratory Standards Institute, 940 West Valley Road, Suite 1400, Wayne, Pa. 19087-1898 USA, 2006; also Clinical and Laboratory Standards Institute. Performance Standards for Antimicrobial Susceptibility Testing; Twentieth Informational Supplement. CLSI document M100-S20 [ISBN1-56238-716-2]. Clinical and Laboratory Standards Institute.
(§2) The MIC determination is a standard laboratory method for evaluating the antibacterial activity of a compound. The MIC represents the lowest drug concentration that inhibits visible growth of bacteria following overnight incubation. […] Typically, the drug concentration range is broken down into 2-fold increments (e.g. 0.06 μg/mL, 0.12 μg/mL. 0.25 μg/mL, 0.50 μg/mL, 1.0 μg/mL, etc.) and the various drug concentrations are all individually incubated overnight with approximately the same number of bacteria. The MIC is then determined by visually inspecting the drug effect at each concentration, and identifying the lowest drug concentration that has inhibited bacterial growth as compared to the drug free control. Typically, bacteria continue to grow at drug concentrations lower than the MIC and don't grow at concentrations at and above the MIC.
(§3) The MIC values described in Table 1 below were derived from assays wherein each test compound was evaluated in duplicate. In cases where the duplicate values varied by 0-2-fold, the lower of the two values was reported below. Generally speaking, if the duplicate values varied by more than 2-fold, the assay was considered non-valid and was repeated until the variation between duplicate runs was ≦2-fold. In line with the CLSI guidelines referred to above, both control organisms and reference compounds were utilized in each MIC assay to provide proper quality control. MIC values generated with these control organisms and reference compounds were required to fall within a defined range for the assay to be considered valid and be included herein. Those skilled in the art will recognize that MIC values can and do vary from experiment to experiment. Generally speaking, it should be recognized that MIC values often vary +/−2-fold from experiment to experiment. While a single MIC is reported for each compound and each microorganism, the reader should not conclude that each compound was only tested once. Several of the compounds were subjected to multiple tests. The data reported in Table 1 is reflective of the compounds relative activity and different MICs may have been generated on these occasions in light with the guidelines described above.
(§4) The following bacterial strains were used in these MIC determinations:
2) Klebsiella pneumoniae: Ciprofloxacin-resistant isolate, expresses extended-spectrum beta-lactamases (ESBL), clinical isolate, labeled as 1000-02;

Test [2] has as its system Pseudomonas aeruginosa UC-12120. The experiment in a line: minimum inhibitory concentration (MIC) testing according to CLSI guidelines, Pseudomonas aeruginosa. To be noted: UC-12120, wild-type, labeled as 1091-05, overnight incubation, lower of duplicate values; for MIC: Pseudomonas aeruginosa, UC12120, read-out: AB-MBT: Pseudomonas aeruginosa 1091-05: MIC (MstRcn). How it is done: as §1, §2, §3, §4
1) Pseudomonas aeruginosa UC-12120: Wild-type, labeled as 1091-05;

Test [3] relates to Acinetobacter baumannii/haemolyticus AB-3167. The experiment in a line: minimum inhibitory concentration (MIC) testing according to CLSI guidelines, Acinetobacter. To be noted: multidrug-resistant clinical isolate AB-3167, overnight incubation, lower of duplicate values; for MIC: Acinetobacter baumannii, read-out: AB-MBT: Acinetobacter baumanii AB-3167: MIC (MstRcnt). On the procedure: as §1, §2, §3, §4
3) Acinetobacter baumannii/haemolyticus: Multidrug-resistant clinical isolate, labeled as AB-3167.

As usually defined, the MIC is the smallest concentration in the dilution series that meets the test's criterion for growth inhibition. With `CC(C)(O/N=C(\C(=O)N[C@@H]1C(=O)N(S(=O)(=O)O)[C@@H]1CNC(=O)c1ccc(NC(=O)c2cc(=O)c(O)cn2O)cc1)c1csc(N)n1)C(=O)O` [Example 52, 2-({[(1Z)-1-(2-amino-1,3-thiazol-4-yl)-2-{[(2R,3S)-2-{[(4-{[(1,5-dihydroxy-4-oxo-1,4-dihydropyridin-2-yl)carbonyl]amino}benzoyl)amino]methyl}-4-oxo-1-sulfoazetidin-3-yl]amino}-2-oxoethylidene]amino}oxy)-2-methylpropanoic acid], the results for the minimum inhibitory concentration (MIC) in test [1], in test [2] and in test [3] were 1 µg/mL (≈ 1.38 µM), 0.5 µg/mL (≈ 0.692 µM) and 0.5 µg/mL (≈ 0.692 µM), respectively.
For `Nc1nc(/C(=N/OC2(C(=O)O)CCC2)C(=O)N[C@@H]2C(=O)N(S(=O)(=O)O)[C@@H]2CNC(=O)c2ccc(CNC(=O)c3cc(O)c(O)cn3)cc2)cs1` [Example 61, 1-({[(1Z)-1-(2-amino-1,3-thiazol-4-yl)-2-{[(2R,3S)-2-({[4-({[(4,5-dihydroxypyridin-2-yl)carbonyl]amino}methyl)benzoyl]amino}methyl)-4-oxo-1-sulfoazetidin-3-yl]amino}-2-oxoethylidene]amino}oxy)cyclobutanecarboxylic acid], the MIC in test [1] amounted to 2 µg/mL (≈ 2.73 µM); in test [2], 32 µg/mL (≈ 43.7 µM); in test [3] it was 1 µg/mL (≈ 1.36 µM).
In the case of `CC(C)(O/N=C(\C(=O)N[C@@H]1C(=O)N(S(=O)(=O)O)[C@@H]1CNC(=O)c1ccc(C(=O)NCc2cc(=O)c(O)cn2O)cc1)c1csc(N)n1)C(=O)O` [Example 43, 2-({[(1Z)-1-(2-amino-1,3-thiazol-4-yl)-2-{[(2R,3S)-2-{[(4-{[(1,5-dihydroxy-4-oxo-1,4-dihydropyridin-2-yl)methyl]carbamoyl}benzoyl)amino]methyl}-4-oxo-1-sulfoazetidin-3-yl]amino}-2-oxoethylidene]amino}oxy)-2-methylpropanoic acid], the minimum inhibitory concentration (MIC) in test [1] worked out at 0.5 µg/mL (≈ 0.679 µM); in test [2], 0.125 µg/mL (≈ 0.17 µM); in test [3] it was 0.25 µg/mL (≈ 0.339 µM).
In the case of `N#C/N=C(\NCc1cc(=O)c(O)cn1O)NC[C@@H]1[C@H](NC(=O)/C(=N\OC2(C(=O)O)CCC2)c2csc(N)n2)C(=O)N1S(=O)(=O)O` [Example 63, 1-({[(1Z)-1-(2-amino-1,3-thiazol-4-yl)-2-{[(2R,3S)-2-({[(Z)-(cyanoimino){[(1,5-dihydroxy-4-oxo-1,4-dihydropyridin-2-yl)methyl]amino}methyl]amino}methyl)-4-oxo-1-sulfoazetidin-3-yl]amino}-2-oxoethylidene]amino}oxy)cyclobutanecarboxylic acid], the MIC came to 1 µg/mL (≈ 1.5 µM) in test [1], 0.25 µg/mL (≈ 0.374 µM) in test [2] and 0.5 µg/mL (≈ 0.748 µM) in test [3].
For the compound `Nc1nc(/C(=N/OCC(=O)O)C(=O)N[C@@H]2C(=O)N(S(=O)(=O)O)[C@@H]2CNC(=O)NCc2cc(=O)c(O)cn2O)cs1` [Example 69, ({[(1Z)-1-(2-amino-1,3-thiazol-4-yl)-2-({(2R,3S)-2-[({[(1,5-dihydroxy-4-oxo-1,4-dihydropyridin-2-yl)methyl]carbamoyl}amino)methyl]-4-oxo-1-sulfoazetidin-3-yl}amino)-2-oxoethylidene]amino}oxy)acetic acid], the results for the minimum inhibitory concentration (MIC) in test [1], in test [2] and in test [3] were 1 µg/mL (≈ 1.65 µM), 0.25 µg/mL (≈ 0.414 µM) and 0.25 µg/mL (≈ 0.414 µM), respectively.
In the case of `CC(C)(O/N=C(\C(=O)N[C@@H]1C(=O)N(S(=O)(=O)[O-])[C@@H]1CNC(=O)c1cc(-c2cc(=O)c(O)cn2O)no1)c1csc(N)n1)C(=O)[O-].[Na+].[Na+]` [Example 15, 2-({[(1Z)-1-(2-amino-1,3-thiazol-4-yl)-2-({(2R,3S)-2-[({[3-(1,5-dihydroxy-4-oxo-1,4-dihydropyridin-2-yl)isoxazol-5-yl]carbonyl}amino)methyl]-4-oxo-1-sulfoazetidin-3-yl}amino)-2-oxoethylidene]amino}oxy)-2-methylpropanoic acid, bis sodium salt], in test [1], the “AB-MBT: Klebsiella pneumoniae 1000-02: MIC (MstRcnt)” value is 1.00 µg/mL. Besides, the “AB-MBT: Pseudomonas aeruginosa 1091-05: MIC (MstRcn)” value in test [2] stood at 0.250 µg/mL. The “AB-MBT: Acinetobacter baumanii AB-3167: MIC (MstRcnt)” value in test [3] is 0.250 µg/mL.
Turning to `CC(C)(O/N=C(\C(=O)N[C@@H]1C(=O)N(S(=O)(=O)O)[C@@H]1CNC(=O)c1ccc(CNC(=O)c2cc(O)c(O)cn2)cc1)c1csc(N)n1)C(=O)O` [Example 51, 2-({[(1Z)-1-(2-amino-1,3-thiazol-4-yl)-2-{[(2R,3S)-2-({[4-({[(4,5-dihydroxypyridin-2-yl)carbonyl]amino}methyl)benzoyl]amino}methyl)-4-oxo-1-sulfoazetidin-3-yl]amino}-2-oxoethylidene]amino}oxy)-2-methylpropanoic acid], the MIC in test [1] is 2 µg/mL (≈ 2.78 µM); in test [2], 0.125 µg/mL (≈ 0.173 µM); in test [3], 1 µg/mL (≈ 1.39 µM).
Regarding `CC(C)(O/N=C(\C(=O)N[C@@H]1C(=O)N(S(=O)(=O)O)[C@@H]1CNc1cc(C(=O)NCc2cc(=O)c(O)cn2O)ccn1)c1csc(N)n1)C(=O)O` [Example 50, 2-({[(1Z)-1-(2-amino-1,3-thiazol-4-yl)-2-{[(2R,3S)-2-{[(4-{[(1,5-dihydroxy-4-oxo-1,4-dihydropyridin-2-yl)methyl]carbamoyl}pyridin-2-yl)amino]methyl}-4-oxo-1-sulfoazetidin-3-yl]amino}-2-oxoethylidene]amino}oxy)-2-methylpropanoic acid], the minimum inhibitory concentration (MIC) was 0.5 µg/mL (≈ 0.705 µM) in test [1], 0.125 µg/mL (≈ 0.176 µM) in test [2] and 0.5 µg/mL (≈ 0.705 µM) in test [3].
`CC(C)(O/N=C(\C(=O)N[C@@H]1C(=O)N(S(=O)(=O)O)[C@@H]1CNC(=O)c1cc(-c2cc(=O)c(O)c[nH]2)no1)c1csc(N)n1)C(=O)O` [Example 14, 2-({[(1Z)-1-(2-amino-1,3-thiazol-4-yl)-2-({(2R,3S)-2-[({[3-(5-hydroxy-4-oxo-1,4-dihydropyridin-2-yl)isoxazol-5-yl]carbonyl}amino)methyl]-4-oxo-1-sulfoazetidin-3-yl}amino)-2-oxoethylidene]amino}oxy)-2-methylpropanoic acid]: the MIC in test [1] stood at 0.5 µg/mL (≈ 0.764 µM); in test [2], 1 µg/mL (≈ 1.53 µM); in test [3] it was 0.5 µg/mL (≈ 0.764 µM).
With `Nc1nc(/C(=N/O[C@@H](Cc2ccccc2)C(=O)O)C(=O)N[C@@H]2C(=O)N(S(=O)(=O)O)[C@@H]2CNC(=O)NCc2cc(=O)c(O)cn2O)cs1` [Example 32, (2S)-2-({[(1Z)-1-(2-amino-1,3-thiazol-4-yl)-2-({(2R,3S)-2-[({[(1,5-dihydroxy-4-oxo-1,4-dihydropyridin-2-yl)methyl]carbamoyl}amino)methyl]-4-oxo-1-sulfoazetidin-3-yl}amino)-2-oxoethylidene]amino}oxy)-3-phenylpropanoic acid], the minimal inhibitory concentration (MIC) in test [1], in test [2] and in test [3] was 1 µg/mL (≈ 1.44 µM) throughout.
`Nc1nc(/C(=N/OC2(C(=O)O)CCOCC2)C(=O)N[C@@H]2C(=O)N(S(=O)(=O)O)[C@@H]2CNC(=O)NCc2cc(=O)c(O)cn2O)cs1` [Example 27, 4-({[(1Z)-1-(2-amino-1,3-thiazol-4-yl)-2-({(2R,3S)-2-[({[(1,5-dihydroxy-4-oxo-1,4-dihydropyridin-2-yl)methyl]carbamoyl}amino)methyl]-4-oxo-1-sulfoazetidin-3-yl}amino)-2-oxoethylidene]amino}oxy)tetrahydro-2H-pyran-4-carboxylic acid]: the minimum inhibitory concentration (MIC) came to 1 µg/mL (≈ 1.48 µM) in test [1], 1 µg/mL (≈ 1.48 µM) in test [2] and 2 µg/mL (≈ 2.96 µM) in test [3].
